Data from US20140363391A1, “SYSTEM AND METHOD FOR ADMINISTERING POLOXAMERS AND ANESTHETICS WHILE PERFORMING CPR AND MINIMIZING REPERFUSION INJURY” (priority 2013, published 2014).

System: animals receiving CPR
Experiment: Animal studies with administration of an anesthetic gas during CPR
Format: in vivo
Conditions: compared with other inhaled anesthetics
Description: In one embodiment, the administered anesthetic includes sevoflurane. Other volatile anesthetics that may be administered include: halothane, enflurane, and desflurane isoflurane, xenon, helium and the like. […] These anesthetics may provide protective effects when administered before or during CPR and help stabilize the brain, heart, or body to help the heart, brain, and/or body to stay fresh. It is believed that some anesthetic agents provide these effects by attenuating the mitochondrial membrane permeability, or manipulating and protecting the mitochondrial membrane pores. It is believed that during ischemia, permeability pores in the mitochondria cell membrane open up causing the mitochondria to swell. In such a condition, the mitochondria are destroyed or damaged when blood flow is reestablished. The anesthetic may help protects against such damage, especially if the anesthetic is delivered or delivery is initiated early in reestablishing blood flow. Some volatile anesthetics like Xenon provide anesthesia by non-competitive inhibit N-methyl-D-aspartate receptors. Due to the fact that reperfusion injury occurs very early during the resuscitation efforts (within 2-3 minutes from the imitation of CPR) it is preferable that the anesthetic is delivered or delivery is initiated within the first 5 minutes of CPR efforts. […]

**Q.** With `FCOC(C(F)(F)F)C(F)(F)F` [Sevoflurane, sevoflurane] as the compound, how does the cardiodepressant effects read?
**A.** The cardiodepressant effects was “less of cardiodepressant effects”.

**Q.** And the “protection from reperfusion injury” value?
**A.** The value was “significant protection from reperfusion injury”.
